Measured values reported in patent publication US7265131B2, “Isoquinolinone derivatives and their use as therapeutic agents” (Exelixis, Inc., priority 2002, dated 2007).

target: T1, LXRβ (Homo sapiens, UniProt P55055); test: Scintillation proximity assay (SPA), competition with 3H-24,25-epoxycholesterol; format: binding; details: average Ki with respect to LXR β, read-out: Ki(b)
T1 construct: were made by cloning the appropriate full-length cDNAs into the pBacPakhis1 vector; poly-His (pBacPakhis1) (N); made in house; host or cells: Sf9 insect cells (baculovirus), crude lysate
T1 sequence (P19793 whole entry): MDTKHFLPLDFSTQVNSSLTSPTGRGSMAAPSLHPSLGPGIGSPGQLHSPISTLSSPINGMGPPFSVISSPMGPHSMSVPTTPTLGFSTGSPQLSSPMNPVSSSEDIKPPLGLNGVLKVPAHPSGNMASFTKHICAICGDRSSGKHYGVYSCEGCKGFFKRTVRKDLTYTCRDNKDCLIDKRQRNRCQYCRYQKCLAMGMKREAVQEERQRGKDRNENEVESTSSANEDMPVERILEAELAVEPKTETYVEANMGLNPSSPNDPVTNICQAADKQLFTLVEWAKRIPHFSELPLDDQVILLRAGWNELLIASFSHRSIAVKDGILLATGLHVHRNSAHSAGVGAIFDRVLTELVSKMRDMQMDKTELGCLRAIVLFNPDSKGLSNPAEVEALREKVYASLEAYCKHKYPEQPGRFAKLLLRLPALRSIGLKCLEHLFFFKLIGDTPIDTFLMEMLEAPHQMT
T1 sequence (P55055 whole entry): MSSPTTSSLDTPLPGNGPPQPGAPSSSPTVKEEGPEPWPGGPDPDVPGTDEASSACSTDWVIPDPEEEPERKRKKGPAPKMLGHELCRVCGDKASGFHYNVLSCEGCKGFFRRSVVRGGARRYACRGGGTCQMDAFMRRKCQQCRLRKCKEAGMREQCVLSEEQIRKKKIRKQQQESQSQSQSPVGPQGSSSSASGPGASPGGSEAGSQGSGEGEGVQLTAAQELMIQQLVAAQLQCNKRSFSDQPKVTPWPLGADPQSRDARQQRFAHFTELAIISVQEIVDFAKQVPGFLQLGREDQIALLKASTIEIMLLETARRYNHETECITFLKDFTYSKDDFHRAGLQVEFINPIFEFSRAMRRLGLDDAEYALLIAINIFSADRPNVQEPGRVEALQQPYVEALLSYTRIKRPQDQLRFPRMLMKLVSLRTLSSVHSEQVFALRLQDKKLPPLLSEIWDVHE
Description: The SPA assay measures the radioactive signal generated by the binding of ^3H-24,25-epoxycholesterol to LXRα or LXRβ. The basis of the assay is the use of SPA beads containing a scintillant, such that when binding to the receptor brings the labeled ligand into proximity with the bead, the energy from the label stimulates the scintillant to emit light. The light is measured using a standard microplate scintillation reader. The ability of a ligand to bind to a receptor can be measured by assessing the degree to which the compound can compete off a radiolabelled ligand with known affinity for the receptor.
1. Label: ^3H-24,25-epoxy-cholesterol (Amersham)
3. LXRβ lysate: Baculovirus expressed LXRβ/RXR heterodimer with RXR having a 6-HIS tag produced as a crude lysate
4. SPA beads: Ysi copper His-tag SPA beads (Amersham)
Baculovirus expression plasmids for human RXR α (accession No NM_002957), LXR a (accession No U22662), LXR β (accession No U07132) were made by cloning the appropriate full-length cDNAs into the pBacPakhis1 vector (Clontech, CA) following standard procedures. Insertion of the cDNAs into the pBAcPakhis1 vector polylinker created an in frame fusion to the cDNA to an N-terminal poly-His tag present in pBacPakhis1. Correct cloning was confirmed by restriction mapping, and/or sequencing.
Cell lysates were prepared by infecting healthy, Sf9 insect cells at a density of approximately 1.25×10^6/ml at 27° C., in a total volume of 500 mL per 1 L sized spinner flasks, cultured under standard conditions. To prepare LXRα lysate, insect cells were co-transfected with the LXR α expression cassette at an M.O.I of 0.5 to 0.8 and with the RXR expression cassette at a M.O.I. of approximately 1.6. To prepare LXRβ lysate, insect cells were co-transfected with the LXR β expression cassette at an M.O.I of approximately 1.6 and with the RXR expression cassette at a M.O.I. of approximately 1.6. In both cases cells were incubated for 48 hours at 27° C. with constant shaking prior to harvesting.
After incubation, cells were harvested by centrifugation and pelleted. Cell pellets were resuspended in two volumes of ice-cold freshly prepared extraction buffer (20 mM Tris pH 8.0, 10 mM Imidazole, 400 mM NaCl, containing one EDTA free protease inhibitor tablet (Roche Catalog No: 1836170) per 10 ml of extraction buffer).
Cells were homogenized slowly on ice using a Douncer to achieve 80-90% cell lysis. The homogenate was centrifuged in a pre-chilled rotor (Ti50 or Ti70, or equivalent) at 45,000 rpm for 30 minutes at 4° C. Aliquots of the supernatant were frozen on dry ice and stored frozen at −80° C. until quantification and quality control. Aliquots of the lysates were tested in the SPA assay to ensure lot to lot consistency, and via SDS-PAGE analysis after purification using Ni-NTA Resin (Qiagen) and adjusted for protein concentration and expression level prior to use in screening assays.
[^3H] 24,25 Epoxycholesterol (EC) solution: For a single 384-well plate (or 400 wells), 21 μL of [^3H] EC (specific activity 76.5 Ci/mmol, concentration 3.2 mCi/mL) was added to 4.4 mL of 2×SPA buffer to provide for a final concentration of 200 nM. For each additional 384-well plate, an additional 19.1 μL of [^3H] EC was added to 4.0 mL of additional 2×SPA buffer. The final concentration of [^3H] EC in the well was 50 nM.
LXRβ lysate (prepared as above) was diluted with protein lysate dilution buffer. 1400 μL of diluted LXRβ lysate was prepared per 384-well plate, ([…]) and 1120 μL of diluted LXRβ lysate was prepared for each additional 384-well plate.
SPA bead solution: For a 384-well plate (or 400 wells), 3.75 mL of 2×SPA buffer w/o EDTA, 2.25 mL of H2O, and 1.5 mL of Ysi His-tag SPA beads (vortex well before taking) were mixed together. For each additional 384-well plate, an additional 3.5 mL of 2×SPA buffer w/o EDTA, 2.1 mL of H2O, and 1.4 mL of Ysi His-tag SPA beads were mixed together. […]

Ki | SMILES
10 to 150 nM | Cc1ccc(Cn2c(-c3ccc(Oc4ccccc4)cc3)cc3ccccc3c2=O)c(C)c1 [2-(2,4-dimethylbenzyl)-3-(4-phenoxyphenyl)-2H-isoquinolin-1-one]
10 to 150 nM | O=c1c2c(Cl)cccc2cc(-c2cc(-c3cc(C(F)(F)F)cc(C(F)(F)F)c3)co2)n1Cc1ccc(F)cc1F [3-[4-(3,5-bis-trifluoromethylphenyl)furan-2-yl]-8-chloro-2-(2,4-difluorobenzyl)-2H-isoquinolin-1-one]
10 to 150 nM | Nc1ccc(-c2coc(-c3cc4cccc(Cl)c4c(=O)n3Cc3ccc(F)cc3F)c2)cc1C(F)(F)F [3-[4-(4-amino-3-trifluoromethylphenyl)furan-2-yl]-8-chloro-2-(2,4-difluorobenzyl)-2H-isoquinolin-1-one]
150 to 500 nM | CCOc1ccc(-c2csc(-c3cc4cccc(Cl)c4c(=O)n3Cc3ccc(F)cc3F)c2)cc1Cl [8-chloro-3-[4-(3-chloro-4-ethoxyphenyl)thiophen-2-yl]-2-(2,4-difluorobenzyl)-2H-isoquinolin-1-one]
> 500 nM | Cc1ccc(Cn2c(C#CC(C)(C)O)cc3ccccc3c2=O)c(C)c1 [2-(2,4-dimethylbenzyl)-3-(3-hydroxy-3-methylbut-1-ynyl)-2H-isoquinolin-1-one]
10 to 150 nM | O=c1c2c(Cl)cccc2cc(-c2ccc(Oc3ccccc3)cc2)n1Cc1cccs1 [8-chloro-3-(4-phenoxyphenyl)-2-thiophen-2-ylmethyl-2H-isoquinolin-1-one]
> 500 nM | Cc1cccc(-c2cc3ccccc3c(=O)n2Cc2ccccc2)c1 [2-benzyl-3-m-tolyl-2H-isoquinolin-1-one]
10 to 150 nM | O=c1c2c(Cl)cccc2cc(-c2ccc(Oc3ccccc3)cc2)n1CC1CCCCC1 [8-chloro-2-cyclohexylmethyl-3-(4-phenoxyphenyl)-2H-isoquinolin-1-one]
10 to 150 nM | CS(=O)(=O)c1ccc(-c2ccc(-c3cc4cccc(Cl)c4c(=O)n3Cc3ccc(F)cc3F)s2)cc1 [8-chloro-2-(2,4-difluorobenzyl)-3-[5-(4-methanesulfonylphenyl)thiophen-2-yl]-2H-isoquinolin-1-one]
10 to 150 nM | O=c1c2c(Cl)cccc2cc(-c2ccc(Oc3ccccc3)cc2)n1Cc1ccc(F)cc1F [8-chloro-2-(2,4-difluorobenzyl)-3-(4-phenoxyphenyl)-2H-isoquinolin-1-one]
150 to 500 nM | Cc1ccc(Cn2c(-c3ccsc3)cc3ccccc3c2=O)c(C)c1 [2-(2,4-dimethylbenzyl)-3-thiophen-3-yl-2H-isoquinolin-1-one]
10 to 150 nM | Cc1ccc(Cn2c(-c3ccc(Oc4ccccc4)cc3)cc3cccc(C)c3c2=O)cc1 [8-methyl-2-(4-methylbenzyl)-3-(4-phenoxyphenyl)-2H-isoquinolin-1-one]
10 to 150 nM | Cc1cccc(-c2cc3ccccc3c(=O)n2Cc2ccc(C)cc2C)c1 [2-(2,4-dimethylbenzyl)-3-m-tolyl-2H-isoquinolin-1-one]
10 to 150 nM | O=c1c2c(Cl)cccc2cc(-c2ccc(Oc3cnccn3)cc2)n1Cc1ccc(F)cc1F [8-chloro-2-(2,4-difluorobenzyl)-3-[4-(pyrazin-2-yloxy)phenyl]-2H-isoquinolin-1-one]
